We go through 19 compounds from ChEMBL document CHEMBL1140532, “Omega-alkoxy analogues of SAHA (vorinostat) as inhibitors of HDAC: a study of chain-length and stereochemical dependence” (Bioorg Med Chem Lett, 2007).

A value given as a limit tells only on which side of the number the result lay.

As a reminder, the IC50 is the midpoint of a concentration-inhibition curve. A high value points to weaker potency.

The subject of one assay is NCI-H460. In words: Growth inhibition of human H460 cells by SRB assay. Format: functional, cell-based. In general terms: In SRB staining, fixed cells bind dye roughly in proportion to their protein.
A further assay concerns the target Histone deacetylase 2 (Homo sapiens, UniProt Q92769). Put plainly: Inhibition of HDAC2 in HeLa cell lysates.
The subject of a further assay is NB-4. Put plainly: Growth inhibition of human NB4 cells by SRB assay. Format: functional, cell-based.
Another assay has as its system HCT-116. In words: Growth inhibition of human HCT116 cells by SRB assay. The format is functional, cell-based.

Sequence of Histone deacetylase 2 (Q92769 whole entry): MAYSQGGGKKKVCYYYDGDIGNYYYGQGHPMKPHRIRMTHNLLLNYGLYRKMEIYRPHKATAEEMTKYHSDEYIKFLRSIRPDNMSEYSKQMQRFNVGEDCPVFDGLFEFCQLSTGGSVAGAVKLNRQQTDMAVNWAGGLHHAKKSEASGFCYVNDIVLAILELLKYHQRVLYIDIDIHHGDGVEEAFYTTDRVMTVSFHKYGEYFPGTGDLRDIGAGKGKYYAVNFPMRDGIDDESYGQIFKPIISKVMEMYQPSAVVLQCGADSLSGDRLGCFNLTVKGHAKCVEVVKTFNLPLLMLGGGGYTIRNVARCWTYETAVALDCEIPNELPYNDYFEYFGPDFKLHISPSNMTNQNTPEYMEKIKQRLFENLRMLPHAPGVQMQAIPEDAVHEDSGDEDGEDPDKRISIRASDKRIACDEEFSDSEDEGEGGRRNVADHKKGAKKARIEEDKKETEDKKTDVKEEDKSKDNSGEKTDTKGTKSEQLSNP

On to `COc1ccc(CO[C@H](CCCCCC(=O)NO)C(=O)Nc2ccccc2)cc1`, for which the IC50 was 500 nM with NCI-H460, ≥ 50 nM at Histone deacetylase 2, 70 nM in the assay on NB-4 and 390 nM in the assay on HCT-116.
Turning to `O=C(CCCCCC(OCc1ccc(C(F)(F)F)cc1)C(=O)Nc1ccccc1)NO` (stereo not given), the half-inhibitory concentration (IC50) is 480 nM with NCI-H460, ≥ 50 nM at Histone deacetylase 2, 170 nM in the assay with NB-4 and 430 nM in the assay with HCT-116.
As for `Cc1ccc(COC(CCCCCC(=O)NO)C(=O)Nc2ccccc2)cc1` (stereo not given), the IC50 in the assay with NCI-H460 is 590 nM; at Histone deacetylase 2, ≥ 50 nM; in the assay on NB-4, 120 nM; with HCT-116 it was 270 nM.
On the same counts, the results for `COc1cccc(COC(CCCCCC(=O)NO)C(=O)Nc2ccccc2)c1` (stereo not given) are 590 nM, ≥ 50 nM, 160 nM and 630 nM.
The corresponding values for `COc1cccc(COC(CCCCCC(=O)NO)C(=O)N(Cc2cccc(OC)c2)c2ccccc2)c1` (stereo not given) are 7400 nM, 500 nM, 4000 nM and 7500 nM.
The corresponding values for `COc1cc(COC(CCCCCC(=O)NO)C(=O)Nc2ccccc2)cc(OC)c1` (stereo not given) are 450 nM, ≥ 50 nM, 50 nM and 300 nM.
Take `COc1ccc(NC(=O)C(CCCCCC(=O)NO)OCc2ccccc2)cc1` (stereo not given): the IC50 with NCI-H460 is 1000 nM; on Histone deacetylase 2, 500 nM; in the assay on NB-4, 250 nM; in the assay on HCT-116, 500 nM.
Turning to `COc1ccc(COC(CCCCCC(=O)NO)C(=O)Nc2ccc(OC)cc2)cc1` (stereo not given), the half-maximal inhibitory concentration (IC50) is 300 nM in the assay on NCI-H460, 500 nM against Histone deacetylase 2, 150 nM in the assay on NB-4 and 340 nM with HCT-116.
On the same counts, the results for `O=C(CCCCCC(O)C(=O)Nc1ccccc1)NO` (stereo not given) are 460 nM, 500 nM, 340 nM and 1090 nM.
The corresponding values for `COC(CCCCCC(=O)NO)C(=O)Nc1ccccc1` (stereo not given) are 1200 nM, 500 nM, 520 nM and 880 nM.
On the same counts, the results for `COc1ccc(COC(CCCCCC(=O)NO)C(=O)Nc2ccccc2)cc1` (stereo not given) are 520 nM, ≥ 50 nM, 120 nM and 220 nM.
On to `COc1ccc(CO[C@@H](CCCCCC(=O)NO)C(=O)Nc2ccccc2)cc1`, for which the IC50 with NCI-H460 is 450 nM; against Histone deacetylase 2, ≥ 50 nM; in the assay with NB-4, 110 nM; in the assay with HCT-116 it was 250 nM.
Take `COC(CCCCC(=O)NO)C(=O)Nc1ccccc1` (stereo not given): the IC50 in the assay on NCI-H460 stood at 5700 nM; at Histone deacetylase 2 it was 500 nM; in the assay with NB-4, 3500 nM; in the assay on HCT-116, 5000 nM.
On the same counts, the results for `CCCOC(CCCCC(=O)NO)C(=O)Nc1ccccc1` (stereo not given) are 10400 nM, 500 nM, 4100 nM and 8500 nM.
For `O=C(CCCCCC(Oc1cccc(Oc2ccccc2)c1)C(=O)Nc1ccccc1)NO` (stereo not given), the IC50 in the assay with NCI-H460 was 680 nM; in the assay on NB-4, 230 nM; in the assay with HCT-116 it was 670 nM.
In the case of `O=C(CCCCCC(OCc1ccc(Br)cc1)C(=O)Nc1ccccc1)NO` (stereo not given), the IC50 with NCI-H460 was 490 nM; at Histone deacetylase 2, ≥ 50 nM; in the assay on NB-4 it was 60 nM; in the assay on HCT-116, 280 nM.
In the case of `O=C(CCCCC(OCc1ccccc1)C(=O)Nc1ccccc1)NO` (stereo not given), the half-inhibitory concentration (IC50) in the assay on NCI-H460 is 5500 nM; at Histone deacetylase 2 it was 500 nM; with NB-4 it was > 5000 nM; with HCT-116 it was 2400 nM.
On the same counts, the results for `C=CCOC(CCCCCC(=O)NO)C(=O)Nc1ccccc1` (stereo not given) are 1790 nM, 500 nM, 450 nM and 990 nM.
On the same counts, the results for `C=CCOC(CCCCCCC(=O)NO)C(=O)Nc1ccccc1` (stereo not given) are 1800 nM, ≥ 50 nM, 620 nM and 950 nM.
